Results on two molecules are retold here after PMC4076210, “Discovery of Novel AKT Inhibitors with Enhanced Anti-Tumor Effects in Combination with the MEK Inhibitor” (PLoS ONE, 2014).

One may read the TGI as the reduction of tumour growth relative to the control group.

Structures are written as SMILES.

Details of data set [1]: method as in PMID 18381444. Particulars: mice; cited from earlier work.
In data set [2] the test system is HPAC tumor xenografts. As to the kind of experiment: Xenograft tumor growth inhibition, combination with MEK inhibitor. The data set is classed as in vivo, mouse. Particulars: 0.3 mg/kg daily, day 42. Here is the method:
(§1) Tumors were initiated by injecting either cells (SKOV3, CAPAN-2 and HPAC) or a tumor fragments (BT474) subcutaneously into 6–8 week female athymic nude (SKOV3) and SCID (all others) mice. Once tumors reached between 120 and 300 mm^3, mice were randomized according to tumor volume into groups of n = 7–10 mice per treatment. GSK2110183 and GSK2141795 were administered daily at various doses by oral gavage. In combination experiments, GSK1120212 was also administered daily by oral gavage. Tumor volumes and body weight were measured twice weekly, tumor volume was measured with calipers and calculated using equation: […]. Results are represented as percent inhibition on completion of dosing = 100 x [1- average growth of drug-treated population/average growth of vehicle-treated control population].

For data set [3], the system named is CAPAN-2 tumor xenografts. The description is as above. The data set is classed as in vivo, mouse. The conditions noted are these: 0.3 mg/kg, day 69. As to the method:
as §1

As for `CCn1c(-c2nonc2N)nc2c(C#CC(C)(C)O)ncc(OC[C@H]3CCCNC3)c21` [GSK690693], in data set [1], the “hyperglycemia (blood glucose)” value was approximately 500 mg/dL.
With `CC(=O)Nc1cccc(-n2c(=O)n(C3CC3)c(=O)c3c(Nc4ccc(I)cc4F)n(C)c(=O)c(C)c32)c1` [GSK1120212, trametinib, reference compound], the TGI worked out at 65% in data set [2] and 90% in data set [3].
